Measured values reported in US8003602B2 (priority 2006, dated 2011).
Values after ≈ are worked out from the molar mass of the structure shown.

Legend:
B. subtilis = test: MIC, Macro-broth dilution method; format: cell-based, Bacillus subtilis
Source text: (§1) The in-vitro potency was established by minimum inhibitory concentration (MIC) determinations of the compound PM181104 against bacterial strains, by using the Macro-broth dilution method as per National Committee for Clinical Laboratory Standards (2000) guidelines [Journal of Anti-microbial Chemotherapy, 2002, 50, 125-128 (Cross Reference 8: Methods for Dilution Antimicrobial Susceptibility Tests for Bacteria that Grow Aerobically-Fifth Edition: Approved Standard M7-A5. NCCLS, Wayne, Pa., USA)]. Unless stated otherwise, Mueller-Hinton broth was used as nutrient medium for the assay. Linezolid (manufactured by Glenmark Pharma Ltd; Batch no: K2005028) was used as known standard in all in-vitro experiments. For preparation of the stock solution the compound PM181104 was dissolved in chloroform (5% of the total required volume) and diluted using methanol (95% of the total required volume).

B. subtilis ATCC 6633 = test: MIC, Macro-broth dilution method; format: cell-based, Bacillus subtilis
Source text: as §1

S. aureus KEM-MRSA21 = test: MIC, Macro-broth dilution method; format: cell-based, Staphylococcus aureus
Source text: as §1

S. aureus KEM-MRSA12 = test: MIC, Macro-broth dilution method; format: cell-based, Staphylococcus aureus
Source text: as §1

S. aureus KEM-MRSA24 = test: MIC, Macro-broth dilution method; format: cell-based, Staphylococcus aureus
Source text: as §1

S. aureus KEM-MRSA20 = test: MIC, Macro-broth dilution method; format: cell-based, Staphylococcus aureus
Source text: as §1

S. aureus (E710) = test: MIC, Macro-broth dilution method; format: cell-based, Staphylococcus aureus; conditions: S. aureus MRSA E710
Source text: as §1

S. aureus C1 3184 = test: MIC, Macro-broth dilution method; format: cell-based, Staphylococcus aureus
Source text: as §1

S. aureus wien8 = test: MIC, Macro-broth dilution method; format: cell-based, Staphylococcus aureus
Source text: as §1

S. aureus SG511 = test: MIC, Macro-broth dilution method; format: cell-based, Staphylococcus aureus
Source text: as §1

S. aureus (789) = test: MIC, Macro-broth dilution method; format: cell-based, Staphylococcus aureus
Source text: as §1

S. aureus KEM-MRSA25 = test: MIC, Macro-broth dilution method; format: cell-based, Staphylococcus aureus
Source text: as §1

S. aureus KEM-MRSA8 = test: MIC, Macro-broth dilution method; format: cell-based, Staphylococcus aureus
Source text: as §1

S. aureus KEM-MRSA23 = test: MIC, Macro-broth dilution method; format: cell-based, Staphylococcus aureus
Source text: as §1

S. aureus KEM-MRSA18 = test: MIC, Macro-broth dilution method; format: cell-based, Staphylococcus aureus
Source text: as §1

S. aureus Lilavati-MRSA3 = test: MIC, Macro-broth dilution method; format: cell-based, Staphylococcus aureus
Source text: as §1

S. aureus (3066) = test: MIC, Macro-broth dilution method; format: cell-based, Staphylococcus aureus
Source text: as §1

S. aureus E-710 = test: Neutropenic thigh model; format: in vivo, Balb/C mice; conditions: 5 mg/kg intravenously two hours post infection, 6 hour time point
Source text: (§2) The in-vivo potency was established by protection dose (PD) determinations of the compound PM181104 for its antibiotic activity in three animal models using either male or female Balb/C mice.
(§3) The models used were the general purpose efficacy testing models and organ/tissue specific efficacy testing models. The general purpose efficacy testing models used were systemic infection model (septicemia), and localized infection model (neutropenic thigh model). The Organ/Tissue specific infection models used for efficacy testing were kidney, lung infection, and skin abscess model.
Each experimental group consisted of six animals. PM181104 was prepared in cremophor-ethanol formulation as described in example 14.

S. epidermidis Pat 01 IV = test: MIC, Macro-broth dilution method; format: cell-based, Staphylococcus epidermidis
Source text: as §1

S. epidermidis 32965 = test: MIC, Macro-broth dilution method; format: cell-based, Staphylococcus epidermidis
Source text: as §1

S. epidermidis 5744IW = test: MIC, Macro-broth dilution method; format: cell-based, Staphylococcus epidermidis
Source text: as §1

[1] = system: S. epidermidis 6493II(2)W; test: MIC, Macro-broth dilution method; format: cell-based, Staphylococcus epidermidis
Source text: as §1

S. epidermidis 823 = test: MIC, Macro-broth dilution method; format: cell-based, Staphylococcus epidermidis
Source text: as §1

S. epidermidis 6098 = test: MIC, Macro-broth dilution method; format: cell-based, Staphylococcus epidermidis
Source text: as §1

S. epidermidis 10221II W = test: MIC, Macro-broth dilution method; format: cell-based, Staphylococcus epidermidis
Source text: as §1

B. cereus = test: MIC, Macro-broth dilution method; format: cell-based, Bacillus cereus
Source text: as §1

[2] = system: Staphylococcus aureus subsp. aureus ATCC 33591; format: cell-based; conditions: S. aureus MRSA ATCC 33591
Source text: as §1

E. faecalis, ATCC 51299 = format: cell-based
Source text: as §1

E. faecalis ATCC 51575 = format: cell-based
Source text: as §1

[3] = system: methicillin resistant S. aureus E710 (MRSA); format: in vivo, Balb/C mice; conditions: 5 mg/kg intravenously two hours post infection
Source text: as §2, §3
Balb/C mice were infected subcutaneously with approximately 10^8 cfu of an overnight grown culture of methicillin resistant S. aureus E710 (MRSA). The bacteria were suspended in 1:1 mixture of 2% cytodex beads in normal saline (0.85% sodium chloride). PM181104 was prepared in cremophor-ethanol formulation as described in example 14. The solution was administered intravenously at 2.5 mg, 5 mg and 10 mg/kg doses, two hours post infection. Each experimental group consisted of six animals. Following abscess formation the animals were sacrificed and abscess harvested to determine the viable counts. […] Linezolid (manufactured by Glenmark Pharma Ltd; Batch no: K2005028) at 50 mg/kg dose.

B. firmus = test: MIC, Macro-broth dilution method; format: cell-based, Bacillus firmus
Source text: as §1

E. faecium (R-2) = format: cell-based, Enterococcus faecium; conditions: E. faecium R-2 (VRE)
Source text: as §1

E. faecium ATCC 51559 = format: cell-based, Enterococcus faecium
Source text: as §1

## C=C(NC(=O)C(=C)NC(=O)C1CCCN1C(=O)c1nc(-c2ccc(-c3nc(C(=O)NC(=C)C(=O)NC(C)C(N)=O)cs3)c(-c3csc(C4Cc5nc(cs5)C(=O)NC(Cc5ccccc5)C5=NC(CS5)C(=O)NC(Cc5ccc(O)cc5)C(=O)N5CCCC5c5nc(cs5)C(=O)N4)n3)n2)oc1C)C(N)=O (stereo not drawn) [PM181104]
B. subtilis
  MIC: 0.01563 µg/mL (≈ 0.0103 µM)
B. subtilis ATCC 6633
  MIC: 0.00781 µg/mL (≈ 0.00515 µM)
S. aureus KEM-MRSA21
  MIC: 0.01563 µg/mL (≈ 0.0103 µM)
S. aureus KEM-MRSA12
  MIC: 0.01563 µg/mL (≈ 0.0103 µM)
S. aureus KEM-MRSA24
  MIC: 0.00781 µg/mL (≈ 0.00515 µM)
S. aureus KEM-MRSA20
  MIC: 0.01563 µg/mL (≈ 0.0103 µM)
S. aureus (E710)
  MIC: 0.03125 µg/mL (≈ 0.0206 µM)
S. aureus C1 3184
  MIC: 0.0625 µg/mL (≈ 0.0412 µM)
S. aureus wien8
  MIC: 0.01563 µg/mL (≈ 0.0103 µM)
S. aureus SG511
  MIC: 0.0625 µg/mL (≈ 0.0412 µM)
S. aureus (789)
  MIC: 0.00781 µg/mL (≈ 0.00515 µM)
S. aureus KEM-MRSA25
  MIC: 0.01563 µg/mL (≈ 0.0103 µM)
S. aureus KEM-MRSA8
  MIC: 0.01563 µg/mL (≈ 0.0103 µM)
S. aureus KEM-MRSA23
  MIC: 0.01563 µg/mL (≈ 0.0103 µM)
S. aureus KEM-MRSA18
  MIC: 0.01563 µg/mL (≈ 0.0103 µM)
S. aureus Lilavati-MRSA3
  MIC: 0.01563 µg/mL (≈ 0.0103 µM)
S. aureus (3066)
  MIC: 0.03125 µg/mL (≈ 0.0206 µM)
S. aureus E-710
  decrease in viable counts in thigh tissue: approximately 1 log
S. epidermidis Pat 01 IV
  MIC: 0.0625 µg/mL (≈ 0.0412 µM)
S. epidermidis 32965
  MIC: 0.03125 µg/mL (≈ 0.0206 µM)
S. epidermidis 5744IW
  MIC: 0.01563 µg/mL (≈ 0.0103 µM)
[1]
  MIC: 0.0625 µg/mL (≈ 0.0412 µM)
S. epidermidis 823
  MIC: 0.03125 µg/mL (≈ 0.0206 µM)
S. epidermidis 6098
  MIC: 0.0625 µg/mL (≈ 0.0412 µM)
S. epidermidis 10221II W
  MIC: 0.00781 µg/mL (≈ 0.00515 µM)
B. cereus
  MIC: 0.00391 µg/mL (≈ 0.00258 µM)
[2]
  MIC: 0.03125 µg/mL (≈ 0.0206 µM)
E. faecalis, ATCC 51299
  MIC: 0.01563 µg/mL (≈ 0.0103 µM)
E. faecalis ATCC 51575
  MIC: 0.03125 µg/mL (≈ 0.0206 µM)
[3]
  decrease in bacterial count in abscess: approximately 1 log
B. firmus
  MIC: 0.01563 µg/mL (≈ 0.0103 µM)
E. faecium (R-2)
  MIC: 0.00781 µg/mL (≈ 0.00515 µM)
E. faecium ATCC 51559
  MIC: 0.00781 µg/mL (≈ 0.00515 µM)
